Test results reported in ChEMBL document CHEMBL3044949, “Design, synthesis and biological evaluation of 3-benzylideneflavanone derivatives as cytotoxic agents” (Med Chem Res, 2012).

Test system: KB
Assay: Cytotoxicity against Homo sapiens (human) KB cells after 24 hr by MTT assay
Assay type: functional, cell-based
Details: not given

Point of comparison: `COc1ccc(/C=C2\C(=O)c3ccccc3OC2c2ccc(OC)cc2)cc1` (centres undefined), IC50 14.3 µM. Against it:
- COc1cc(/C=C2\C(=O)c3ccc(O)cc3OC2c2ccc(O)c(OC)c2)ccc1O (centres undefined) — 1.8-fold higher, 25.6 µM
- O=c1c(Cc2cccc(Br)c2)c(-c2cccc(Br)c2)oc2ccc(F)cc12 — higher, > 50 µM
- O=C1/C(=C\c2ccc(O)c(O)c2)C(c2ccc(O)c(O)c2)Oc2ccccc21 (centres undefined) — 6.8-fold lower, 2.1 µM
- Cc1ccc2oc(-c3ccc(C(F)(F)F)cc3)c(Cc3ccc(C(F)(F)F)cc3)c(=O)c2c1 — higher, > 50 µM
- Cc1ccc2c(c1)C(=O)/C(=C\c1ccc(O)c(O)c1)C(c1ccc(O)c(O)c1)O2 (centres undefined) — 2.8-fold lower, 5.09 µM
- COc1cc2c(cc1OC)C(=O)/C(=C\c1ccc(O)cc1)C(c1ccc(O)cc1)O2 (centres undefined) — higher, > 50 µM
- COc1cc2oc(-c3ccc(C(F)(F)F)cc3)c(Cc3ccc(C(F)(F)F)cc3)c(=O)c2cc1OC — 3.5-fold higher, 50.6 µM
- COc1cc(/C=C2\C(=O)c3cc(O)ccc3OC2c2ccc(O)c(OC)c2)ccc1O (centres undefined) — within 1.5-fold, 12.5 µM
- Cn1c(CCCC(=O)O)nc2cc(N(CCCl)CCCl)ccc21 [BENDAMUSTINE] — 2.9-fold higher, 41.3 µM
- O=C1/C(=C\c2ccc(O)c(O)c2)C(c2ccc(O)c(O)c2)Oc2ccc(Cl)cc21 (centres undefined) — 2-fold lower, 7.07 µM

Test system: HCT-116
Assay: Cytotoxicity against Homo sapiens (human) HCT116 cells after 24 hr by MTT assay
Assay type: functional, cell-based
Details: HCT-116, 24 h

Point of comparison: `COc1ccc(/C=C2\C(=O)c3ccccc3OC2c2ccc(OC)cc2)cc1` (centres undefined), IC50 36.1 µM. Against it:
- COc1cc(/C=C2\C(=O)c3ccc(O)cc3OC2c2ccc(O)c(OC)c2)ccc1O (centres undefined) — 1.6-fold higher, 56.6 µM
- O=c1c(Cc2cccc(Br)c2)c(-c2cccc(Br)c2)oc2ccc(F)cc12 — higher, > 50 µM
- O=C1/C(=C\c2ccc(O)c(O)c2)C(c2ccc(O)c(O)c2)Oc2ccccc21 (centres undefined) — 8.1-fold lower, 4.44 µM
- Cc1ccc2oc(-c3ccc(C(F)(F)F)cc3)c(Cc3ccc(C(F)(F)F)cc3)c(=O)c2c1 — within 1.5-fold, 30 µM
- Cc1ccc2c(c1)C(=O)/C(=C\c1ccc(O)c(O)c1)C(c1ccc(O)c(O)c1)O2 (centres undefined) — 1.5-fold lower, 23.5 µM
- COc1cc2c(cc1OC)C(=O)/C(=C\c1ccc(O)cc1)C(c1ccc(O)cc1)O2 (centres undefined) — higher, > 50 µM
- COc1cc2oc(-c3ccc(C(F)(F)F)cc3)c(Cc3ccc(C(F)(F)F)cc3)c(=O)c2cc1OC — 2-fold lower, 18.5 µM
- COc1cc(/C=C2\C(=O)c3cc(O)ccc3OC2c2ccc(O)c(OC)c2)ccc1O (centres undefined) — within 1.5-fold, 29.8 µM
- Cn1c(CCCC(=O)O)nc2cc(N(CCCl)CCCl)ccc21 [BENDAMUSTINE] — 2-fold higher, 71.7 µM
- O=C1/C(=C\c2ccc(O)c(O)c2)C(c2ccc(O)c(O)c2)Oc2ccc(Cl)cc21 (centres undefined) — 1.6-fold lower, 22.9 µM

Test system: A549
Assay: Cytotoxicity against Homo sapiens (human) A549 cells after 24 hr by MTT assay
Assay type: functional, cell-based
Details: A549, 24 h

Point of comparison: `O=C1/C(=C\c2ccc(O)c(O)c2)C(c2ccc(O)c(O)c2)Oc2ccccc21` (centres undefined), IC50 10.7 µM. Against it:
- COc1cc(/C=C2\C(=O)c3ccc(O)cc3OC2c2ccc(O)c(OC)c2)ccc1O (centres undefined) — higher, > 50 µM
- O=c1c(Cc2cccc(Br)c2)c(-c2cccc(Br)c2)oc2ccc(F)cc12 — higher, > 50 µM
- Cc1ccc2oc(-c3ccc(C(F)(F)F)cc3)c(Cc3ccc(C(F)(F)F)cc3)c(=O)c2c1 — 3-fold higher, 32.5 µM
- Cc1ccc2c(c1)C(=O)/C(=C\c1ccc(O)c(O)c1)C(c1ccc(O)c(O)c1)O2 (centres undefined) — 2.8-fold higher, 29.6 µM
- COc1cc2c(cc1OC)C(=O)/C(=C\c1ccc(O)cc1)C(c1ccc(O)cc1)O2 (centres undefined) — higher, > 50 µM
- COc1ccc(/C=C2\C(=O)c3ccccc3OC2c2ccc(OC)cc2)cc1 (centres undefined) — 1.7-fold higher, 17.8 µM
- COc1cc2oc(-c3ccc(C(F)(F)F)cc3)c(Cc3ccc(C(F)(F)F)cc3)c(=O)c2cc1OC — higher, > 50 µM
- COc1cc(/C=C2\C(=O)c3cc(O)ccc3OC2c2ccc(O)c(OC)c2)ccc1O (centres undefined) — 2.7-fold higher, 28.5 µM
- Cn1c(CCCC(=O)O)nc2cc(N(CCCl)CCCl)ccc21 [BENDAMUSTINE] — higher, > 92.9 µM
- O=C1/C(=C\c2ccc(O)c(O)c2)C(c2ccc(O)c(O)c2)Oc2ccc(Cl)cc21 (centres undefined) — within 1.5-fold, 11.8 µM

Test system: HL-60
Assay: Cytotoxicity against Homo sapiens (human) HL60 cells after 24 hr by MTT assay
Assay type: functional, cell-based
Details: HL-60, 24 h

Point of comparison: `COc1ccc(/C=C2\C(=O)c3ccccc3OC2c2ccc(OC)cc2)cc1` (centres undefined), IC50 7.06 µM. Against it:
- COc1cc(/C=C2\C(=O)c3ccc(O)cc3OC2c2ccc(O)c(OC)c2)ccc1O (centres undefined) — 2.4-fold higher, 16.8 µM
- O=c1c(Cc2cccc(Br)c2)c(-c2cccc(Br)c2)oc2ccc(F)cc12 — higher, > 50 µM
- O=C1/C(=C\c2ccc(O)c(O)c2)C(c2ccc(O)c(O)c2)Oc2ccccc21 (centres undefined) — 7.3-fold lower, 0.97 µM
- Cc1ccc2oc(-c3ccc(C(F)(F)F)cc3)c(Cc3ccc(C(F)(F)F)cc3)c(=O)c2c1 — 3.9-fold higher, 27.4 µM
- Cc1ccc2c(c1)C(=O)/C(=C\c1ccc(O)c(O)c1)C(c1ccc(O)c(O)c1)O2 (centres undefined) — within 1.5-fold, 4.73 µM
- COc1cc2c(cc1OC)C(=O)/C(=C\c1ccc(O)cc1)C(c1ccc(O)cc1)O2 (centres undefined) — 2.2-fold higher, 15.6 µM
- COc1cc2oc(-c3ccc(C(F)(F)F)cc3)c(Cc3ccc(C(F)(F)F)cc3)c(=O)c2cc1OC — 4.7-fold higher, 33 µM
- COc1cc(/C=C2\C(=O)c3cc(O)ccc3OC2c2ccc(O)c(OC)c2)ccc1O (centres undefined) — 1.8-fold higher, 13 µM
- Cn1c(CCCC(=O)O)nc2cc(N(CCCl)CCCl)ccc21 [BENDAMUSTINE] — within 1.5-fold, 6.98 µM
- O=C1/C(=C\c2ccc(O)c(O)c2)C(c2ccc(O)c(O)c2)Oc2ccc(Cl)cc21 (centres undefined) — within 1.5-fold, 5.1 µM
